Experimental data from the NIST ThermoML archive (doi:10.1021/acs.jced.5b00806).

How the values were obtained:
[1] = wn = mass fraction of the nth substance listed; settings: 98 kPa, Liquid, Capillary tube (Ostwald / Ubbelohde) method
[2] = Liquid; for mass density: 101.33 kPa, Pycnometric method; for vapor or sublimation pressure: Langmuir
[3] = xn = mol fraction of the nth substance listed; settings: 98 kPa, Liquid, magnetic suspension balance, x2 = 0.55

COP(=O)([O-])OC.Cn1cc[n+](C)c1 [1,3-dimethylimidazolium dimethylphosphate] + O
kinematic viscosity [m2/s], [1]
Settings	w2 = 0.0031	w2 = 0.0085	w2 = 0.019	w2 = 0.0237	w2 = 0.0341	w2 = 0.0493	w2 = 0.0587	w2 = 0.0655
303.2 K	0.000137	0.000128	0.000114	0.000107	9.53e-05	7.95e-05	7.22e-05	6.73e-05
313.2 K	7.79e-05	7.35e-05	6.62e-05	6.27e-05	5.63e-05	4.77e-05	4.37e-05	4.09e-05
323.2 K	4.84e-05	4.59e-05	4.18e-05	3.98e-05	3.6e-05	3.09e-05	2.85e-05	2.68e-05
333.2 K	3.22e-05	3.07e-05	2.81e-05	2.69e-05	2.45e-05	2.13e-05	1.97e-05	1.86e-05
343.2 K	2.27e-05	2.17e-05	2e-05	1.92e-05	1.75e-05	1.53e-05	1.43e-05	1.35e-05
353.2 K	1.67e-05	1.6e-05	1.48e-05	1.42e-05	1.31e-05	1.15e-05	1.07e-05	1.02e-05
363.2 K	1.27e-05	1.22e-05	1.17e-05	1.09e-05	1.01e-05	8.9e-06	8.5e-06	8e-06

COP(=O)([O-])OC.Cn1cc[n+](C)c1 [1,3-dimethylimidazolium dimethylphosphate]
[2]
Settings	mass density [kg/m3]
293.2 K	1260
303.2 K	1253
313.2 K	1246
323.2 K	1239
333.2 K	1232
343.2 K	1225
353.2 K	1218
363.2 K	1211

CCCCn1cc[n+](C)c1.F[B-](F)(F)F [1-butyl-3-methylimidazolium tetrafluoroborate]
[2]
Settings	vapor or sublimation pressure [kPa]
396.3 K	7.2e-10
403.7 K	9.9e-10
412.1 K	2.3e-09
413.6 K	1.8e-09
415.4 K	2.8e-09
421.6 K	4.3e-09
424.9 K	6.3e-09
437.3 K	1.9e-08
437.6 K	1.5e-08
446.4 K	3.7e-08
447.3 K	4e-08
447.7 K	3.9e-08
457.2 K	8.3e-08
457.5 K	8.7e-08
464.7 K	1.5e-07
465 K	1.7e-07
465.5 K	1.6e-07

CCCCn1cc[n+](C)c1.F[B-](F)(F)F [1-butyl-3-methylimidazolium tetrafluoroborate] + O
kinematic viscosity [m2/s], [1]
Settings	w2 = 0.0033	w2 = 0.0097	w2 = 0.0181	w2 = 0.0258	w2 = 0.0345	w2 = 0.0488	w2 = 0.0552	w2 = 0.066
303.2 K	5.78e-05	4.53e-05	3.44e-05	2.89e-05	2.26e-05	1.64e-05	1.52e-05	1.39e-05
313.2 K	3.76e-05	3.02e-05	2.37e-05	2.02e-05	1.62e-05	1.2e-05	1.12e-05	1.02e-05
323.2 K	2.59e-05	2.14e-05	1.73e-05	1.48e-05	1.22e-05	9.2e-06	8.6e-06	7.9e-06
333.2 K	1.86e-05	1.54e-05	1.28e-05	1.13e-05	9.4e-06	7.2e-06	6.8e-06	6.2e-06
343.2 K	1.39e-05	1.21e-05	1e-05	8.8e-06	7.5e-06	5.9e-06	5.5e-06	5.1e-06
353.2 K	1.08e-05	9.8e-06	8e-06	7.2e-06	6.2e-06	4.9e-06	4.6e-06	4.2e-06
363.2 K	8.6e-06	7.7e-06	6.5e-06	5.8e-06	5.1e-06	4.1e-06	3.9e-06	3.6e-06

CCn1cc[n+](C)c1.CS(=O)(=O)[O-] [1-ethyl-3-methylimidazolium methanesulfonate] + O
[3]
Settings	binary diffusion coefficient [m2/s]
303.2 K	2.1e-10
313.2 K	3.1e-10
333.2 K	5.35e-10
353.2 K	8.3e-10
373.2 K	1.17e-09

kinematic viscosity [m2/s], [1]
Settings	w2 = 0.0024	w2 = 0.0028	w2 = 0.01	w2 = 0.0191	w2 = 0.0254	w2 = 0.0323	w2 = 0.0358	w2 = 0.047	w2 = 0.0589	w2 = 0.0615
303.2 K	9.34e-05	9.45e-05	7.58e-05	6.2e-05	5.53e-05	4.69e-05	4.51e-05	3.69e-05	3.06e-05	2.95e-05
313.2 K	5.57e-05	5.64e-05	4.66e-05	3.91e-05	3.5e-05	3.06e-05	2.96e-05	2.48e-05	2.09e-05	2.02e-05
323.2 K	3.74e-05	3.65e-05	3.23e-05	2.65e-05	2.39e-05	2.1e-05	2.09e-05	1.77e-05	1.49e-05	1.46e-05
333.2 K	2.57e-05	–	2.26e-05	–	1.76e-05	–	1.53e-05	1.31e-05	–	1.11e-05
343.2 K	1.86e-05	–	1.66e-05	–	1.32e-05	–	1.16e-05	1.01e-05	–	8.5e-06
353.2 K	1.39e-05	–	1.24e-05	–	1.02e-05	–	9.1e-06	8e-06	–	6.8e-06
363.2 K	1.09e-05	–	9.7e-06	–	8.1e-06	–	7.3e-06	6.5e-06	–	5.6e-06
